Species: Rattus norvegicus
Assay: Open TG-GATES - Regimen: Daily Repeat
Type: toxicity, organism-based, Sprague-Dawley
Design: regimen Daily Repeat, gender Male, age 6 weeks
Details: in vivo, po, route gavage; for APTT / Bas / Eos / Fbg / Hb / Ht / Lym / MCH / MCHC / MCV / Mono / Neu / PT / Plat / RBC / Ret / WBC: tissue Blood; for KIDNEY_L / KIDNEY_R / KIDNEY_TOTAL: tissue Kidney; for LIVER: tissue Liver; for A/G / ALP / ALT / AST / BUN / CRE / Ca / Cl / DBIL / GLC / IP / K / LDH / Na / PL / RALB / TBIL / TC / TG / TP / gamma-GTP: tissue Plasma
[1] = 30 mg/kg, 72 h, dose level Middle, time 3 day
[2] = 30 mg/kg, […], dose level Middle, time 7 day
[3] = 30 mg/kg, […], dose level Middle, time 14 day
[4] = 30 mg/kg, […], dose level Middle, time 28 day
[5] = 100 mg/kg, 72 h, dose level High, time 3 day
[6] = 100 mg/kg, […], dose level High, time 7 day
[7] = 100 mg/kg, […], dose level High, time 14 day
[8] = 100 mg/kg, […], dose level High, time 28 day

O=C1CN(/N=C/c2ccc([N+](=O)[O-])o2)C(=O)N1 [NITROFURANTOIN]
TERMINAL_BW [1]: 243.4 g
APTT [1]: 18.9 s
Bas [1]: 0%
Eos [1]: 1%
Fbg [1]: 216.2 mg/dL
Hb [1]: 13.6 g/dL
Ht [1]: 38.5%
Lym [1]: 79.4%
MCH [1]: 22 pg
MCHC [1]: 35.3%
MCV [1]: 62.3 fL
Mono [1]: 3.2%
Neu [1]: 15.4%
PT [1]: 12.6 s
Plat [1]: 121.2 x10_4/uL
RBC [1]: 617.8 x10_4/ul
Ret [1]: 6.3%
WBC [1]: 106.9 x10_2/uL
KIDNEY_L [1]: 1 g
KIDNEY_R [1]: 1 g
KIDNEY_TOTAL [1]: 2.1 g
LIVER [1]: 11.6 g
A/G [1]: 1.6
ALP [1]: 1110 IU/L
ALT [1]: 35.4 IU/L
AST [1]: 67.2 IU/L
BUN [1]: 14.2 mg/dL
CRE [1]: 0.4 mg/dL
Ca [1]: 10.6 mg/dL
Cl [1]: 101.6 meq/L
DBIL [1]: 0.094 mg/dL
GLC [1]: 210.8 mg/dL
IP [1]: 7.6 mg/dL
K [1]: 3.8 meq/L
LDH [1]: 212 IU/L
Na [1]: 140.4 meq/L
PL [1]: 140.2 mg/dL
RALB [1]: 3.5 g/dL
TBIL [1]: 0.1 mg/dL
TC [1]: 70.6 mg/dL
TG [1]: 80.2 mg/dL
TP [1]: 5.6 g/dL
gamma-GTP [1]: 1 IU/L
TERMINAL_BW [2]: 275.5 g
TERMINAL_BW [3]: 332 g
TERMINAL_BW [4]: 404.8 g
APTT [2]: 18.5 s
Bas [2]: 0%
Eos [2]: 1%
Fbg [2]: 223 mg/dL
Hb [2]: 13.5 g/dL
Ht [2]: 38%
Lym [2]: 81%
MCH [2]: 21.3 pg
MCHC [2]: 35.6%
MCV [2]: 60 fL
Mono [2]: 2.2%
Neu [2]: 15.4%
PT [2]: 12.6 s
Plat [2]: 125.8 x10_4/uL
RBC [2]: 634.2 x10_4/ul
Ret [2]: 5.3%
WBC [2]: 120.4 x10_2/uL
APTT [3]: 18.9 s
Bas [3]: 0%
Eos [3]: 0.8%
Fbg [3]: 224 mg/dL
Hb [3]: 14.4 g/dL
Ht [3]: 41.6%
Lym [3]: 79.4%
MCH [3]: 20.8 pg
MCHC [3]: 34.7%
MCV [3]: 60 fL
Mono [3]: 2.2%
Neu [3]: 16.8%
PT [3]: 12.4 s
Plat [3]: 120.1 x10_4/uL
RBC [3]: 693 x10_4/ul
Ret [3]: 4.7%
WBC [3]: 121.2 x10_2/uL
APTT [4]: 20.8 s
Bas [4]: 0%
Eos [4]: 1.2%
Fbg [4]: 215 mg/dL
Hb [4]: 15.3 g/dL
Ht [4]: 43.5%
Lym [4]: 80.8%
MCH [4]: 19.8 pg
MCHC [4]: 35.1%
MCV [4]: 56.5 fL
Mono [4]: 2.6%
Neu [4]: 14.2%
PT [4]: 12.7 s
Plat [4]: 118.4 x10_4/uL
RBC [4]: 770.8 x10_4/ul
Ret [4]: 2.9%
WBC [4]: 92.9 x10_2/uL
KIDNEY_L [2]: 1.1 g
KIDNEY_R [2]: 1.1 g
KIDNEY_TOTAL [2]: 2.2 g
KIDNEY_L [3]: 1.4 g
KIDNEY_R [3]: 1.4 g
KIDNEY_TOTAL [3]: 2.7 g
KIDNEY_L [4]: 1.5 g
KIDNEY_R [4]: 1.5 g
KIDNEY_TOTAL [4]: 3 g
LIVER [2]: 12.9 g
LIVER [3]: 14.8 g
LIVER [4]: 16.9 g
A/G [2]: 1.3
ALP [2]: 965 IU/L
ALT [2]: 30.6 IU/L
AST [2]: 57.6 IU/L
BUN [2]: 17.6 mg/dL
CRE [2]: 0.4 mg/dL
Ca [2]: 10.7 mg/dL
Cl [2]: 101.8 meq/L
DBIL [2]: 0.1 mg/dL
GLC [2]: 197.6 mg/dL
IP [2]: 7.1 mg/dL
K [2]: 4.2 meq/L
LDH [2]: 193 IU/L
Na [2]: 140.4 meq/L
PL [2]: 164 mg/dL
RALB [2]: 3.3 g/dL
TBIL [2]: 0.2 mg/dL
TC [2]: 80.6 mg/dL
TG [2]: 163.2 mg/dL
TP [2]: 5.8 g/dL
gamma-GTP [2]: 1.2 IU/L
A/G [3]: 1.4
ALP [3]: 790.8 IU/L
ALT [3]: 33.2 IU/L
AST [3]: 58 IU/L
BUN [3]: 15.8 mg/dL
CRE [3]: 0.4 mg/dL
Ca [3]: 10.4 mg/dL
Cl [3]: 102.8 meq/L
DBIL [3]: 0.1 mg/dL
GLC [3]: 212.6 mg/dL
IP [3]: 7.1 mg/dL
K [3]: 3.7 meq/L
LDH [3]: 180.8 IU/L
Na [3]: 140.6 meq/L
PL [3]: 161.4 mg/dL
RALB [3]: 3.4 g/dL
TBIL [3]: 0.2 mg/dL
TC [3]: 78 mg/dL
TG [3]: 126.6 mg/dL
TP [3]: 5.9 g/dL
gamma-GTP [3]: 1.2 IU/L
A/G [4]: 1.4
ALP [4]: 568.2 IU/L
ALT [4]: 31.6 IU/L
AST [4]: 54.4 IU/L
BUN [4]: 16.4 mg/dL
CRE [4]: 0.5 mg/dL
Ca [4]: 10.5 mg/dL
Cl [4]: 103.2 meq/L
DBIL [4]: 0.1 mg/dL
GLC [4]: 208 mg/dL
IP [4]: 6.3 mg/dL
K [4]: 3.5 meq/L
LDH [4]: 133.4 IU/L
Na [4]: 140.6 meq/L
PL [4]: 146 mg/dL
RALB [4]: 3.6 g/dL
TBIL [4]: 0.2 mg/dL
TC [4]: 66.4 mg/dL
TG [4]: 137.6 mg/dL
TP [4]: 6.1 g/dL
gamma-GTP [4]: 1.4 IU/L
TERMINAL_BW [5]: 241.1 g
APTT [5]: 17.7 s
Bas [5]: 0%
Eos [5]: 1%
Fbg [5]: 231 mg/dL
Hb [5]: 13.4 g/dL
Ht [5]: 37.9%
Lym [5]: 77.8%
MCH [5]: 21.4 pg
MCHC [5]: 35.5%
MCV [5]: 60.5 fL
Mono [5]: 3.2%
Neu [5]: 15.2%
PT [5]: 12.4 s
Plat [5]: 130.5 x10_4/uL
RBC [5]: 628.2 x10_4/ul
Ret [5]: 4.9%
WBC [5]: 70.5 x10_2/uL
KIDNEY_L [5]: 1.1 g
KIDNEY_R [5]: 1.1 g
KIDNEY_TOTAL [5]: 2.2 g
LIVER [5]: 11.7 g
A/G [5]: 1.5
ALP [5]: 909.6 IU/L
ALT [5]: 35.2 IU/L
AST [5]: 67.8 IU/L
BUN [5]: 14.2 mg/dL
CRE [5]: 0.4 mg/dL
Ca [5]: 10.6 mg/dL
Cl [5]: 100.6 meq/L
DBIL [5]: 0.1 mg/dL
GLC [5]: 209.4 mg/dL
IP [5]: 7.1 mg/dL
K [5]: 3.9 meq/L
LDH [5]: 220.2 IU/L
Na [5]: 139.6 meq/L
PL [5]: 153.8 mg/dL
RALB [5]: 3.3 g/dL
TBIL [5]: 0.1 mg/dL
TC [5]: 75 mg/dL
TG [5]: 110.8 mg/dL
TP [5]: 5.4 g/dL
gamma-GTP [5]: 1 IU/L
TERMINAL_BW [6]: 266.8 g
TERMINAL_BW [7]: 314.4 g
TERMINAL_BW [8]: 380.6 g
APTT [6]: 18.4 s
Bas [6]: 0%
Eos [6]: 1%
Fbg [6]: 217.8 mg/dL
Hb [6]: 13.5 g/dL
Ht [6]: 38.1%
Lym [6]: 82.6%
MCH [6]: 21.6 pg
MCHC [6]: 35.4%
MCV [6]: 61.1 fL
Mono [6]: 2.2%
Neu [6]: 13.2%
PT [6]: 12.8 s
Plat [6]: 124 x10_4/uL
RBC [6]: 624.8 x10_4/ul
Ret [6]: 5.1%
WBC [6]: 120.6 x10_2/uL
APTT [7]: 19.8 s
Bas [7]: 0%
Eos [7]: 0.8%
Fbg [7]: 225.4 mg/dL
Hb [7]: 14.2 g/dL
Ht [7]: 40.7%
Lym [7]: 81.8%
MCH [7]: 19.8 pg
MCHC [7]: 34.8%
MCV [7]: 56.9 fL
Mono [7]: 2.2%
Neu [7]: 14.4%
PT [7]: 12.4 s
Plat [7]: 133.3 x10_4/uL
RBC [7]: 717.2 x10_4/ul
Ret [7]: 3.9%
WBC [7]: 115.5 x10_2/uL
APTT [8]: 20.5 s
Bas [8]: 0%
Eos [8]: 1%
Fbg [8]: 216.2 mg/dL
Hb [8]: 14.7 g/dL
Ht [8]: 42.6%
Lym [8]: 83.8%
MCH [8]: 18.9 pg
MCHC [8]: 34.6%
MCV [8]: 54.7 fL
Mono [8]: 2.4%
Neu [8]: 11.4%
PT [8]: 12.6 s
Plat [8]: 106 x10_4/uL
RBC [8]: 780.2 x10_4/ul
Ret [8]: 3.2%
WBC [8]: 143.7 x10_2/uL
KIDNEY_L [6]: 1.2 g
KIDNEY_R [6]: 1.2 g
KIDNEY_TOTAL [6]: 2.5 g
KIDNEY_L [7]: 1.4 g
KIDNEY_R [7]: 1.4 g
KIDNEY_TOTAL [7]: 2.8 g
KIDNEY_L [8]: 1.7 g
KIDNEY_R [8]: 1.7 g
KIDNEY_TOTAL [8]: 3.3 g
LIVER [6]: 12.6 g
LIVER [7]: 14.5 g
LIVER [8]: 16.2 g
A/G [6]: 1.5
ALP [6]: 995.4 IU/L
ALT [6]: 31.2 IU/L
AST [6]: 63.8 IU/L
BUN [6]: 16 mg/dL
CRE [6]: 0.4 mg/dL
Ca [6]: 10.8 mg/dL
Cl [6]: 102.2 meq/L
DBIL [6]: 0.1 mg/dL
GLC [6]: 187 mg/dL
IP [6]: 7 mg/dL
K [6]: 4.1 meq/L
LDH [6]: 218.8 IU/L
Na [6]: 140.4 meq/L
PL [6]: 142.4 mg/dL
RALB [6]: 3.4 g/dL
TBIL [6]: 0.2 mg/dL
TC [6]: 70.2 mg/dL
TG [6]: 111 mg/dL
TP [6]: 5.7 g/dL
gamma-GTP [6]: 1 IU/L
A/G [7]: 1.4
ALP [7]: 864.2 IU/L
ALT [7]: 34.8 IU/L
AST [7]: 74 IU/L
BUN [7]: 15.4 mg/dL
CRE [7]: 0.4 mg/dL
Ca [7]: 10.3 mg/dL
Cl [7]: 102.2 meq/L
DBIL [7]: 0.084 mg/dL
GLC [7]: 214.8 mg/dL
IP [7]: 6.6 mg/dL
K [7]: 3.5 meq/L
LDH [7]: 208.8 IU/L
Na [7]: 140.8 meq/L
PL [7]: 158.8 mg/dL
RALB [7]: 3.4 g/dL
TBIL [7]: 0.1 mg/dL
TC [7]: 79.2 mg/dL
TG [7]: 110 mg/dL
TP [7]: 6 g/dL
gamma-GTP [7]: 1.6 IU/L
A/G [8]: 1.5
ALP [8]: 573.8 IU/L
ALT [8]: 35.4 IU/L
AST [8]: 63.8 IU/L
BUN [8]: 15 mg/dL
CRE [8]: 0.5 mg/dL
Ca [8]: 10.3 mg/dL
Cl [8]: 104 meq/L
DBIL [8]: 0.1 mg/dL
GLC [8]: 218.6 mg/dL
IP [8]: 6 mg/dL
K [8]: 3.7 meq/L
LDH [8]: 159.4 IU/L
Na [8]: 141.2 meq/L
PL [8]: 155.2 mg/dL
RALB [8]: 3.6 g/dL
TBIL [8]: 0.2 mg/dL
TC [8]: 75.6 mg/dL
TG [8]: 109.8 mg/dL
TP [8]: 6 g/dL
gamma-GTP [8]: 0.8 IU/L
